Laboratory results as given in ChEMBL document CHEMBL5042536, “Development of High Brain-Penetrant and Reversible Monoacylglycerol Lipase PET Tracers for Neuroimaging” (J Med Chem, 2022).

Experiments:
Monoglyceride lipase = biological target: T1, Monoglyceride lipase (Mus musculus, UniProt O35678); experiment: Inhibition of mouse MAGL using 2-AG as substrate incubated for 30 mins
T1 sequence (O35678 whole entry): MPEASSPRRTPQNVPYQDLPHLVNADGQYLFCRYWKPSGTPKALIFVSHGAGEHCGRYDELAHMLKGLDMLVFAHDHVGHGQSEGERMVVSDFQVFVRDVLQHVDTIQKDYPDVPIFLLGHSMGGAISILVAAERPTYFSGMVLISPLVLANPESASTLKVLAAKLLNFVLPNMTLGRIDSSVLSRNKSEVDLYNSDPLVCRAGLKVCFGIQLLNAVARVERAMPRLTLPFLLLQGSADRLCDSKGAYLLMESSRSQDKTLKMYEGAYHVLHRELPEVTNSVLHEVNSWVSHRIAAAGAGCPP

[1] = Drug uptake in […] mouse brain incubated for 30 mins by autoradiography; format: ADME, tissue-based; conditions: 0.5 h
[2] = Drug uptake in Wistar rat brain striatum at 5 nM incubated for 30 mins by autoradiography; format: ADME, tissue-based; conditions: 0.5 h, 0.005 µM
[3] = Drug uptake in MAGL knockout mouse brain incubated for 30 mins by autoradiography relative to control; format: ADME, tissue-based; conditions: 0.5 h
[4] = Drug uptake in Wistar rat brain incubated for 30 mins in presence of PF-06809247 by autoradiography; format: ADME, tissue-based; conditions: 0.5 h
[5] = Drug uptake in Wistar rat brain Cortex at 5 nM incubated for 30 mins by autoradiography; format: ADME, tissue-based; conditions: 0.5 h, 0.005 µM
[6] = Drug uptake in Wistar rat brain Hippocampus at 2 nM incubated for 30 mins by autoradiography; format: ADME, tissue-based; conditions: 0.5 h, 0.002 µM
[7] = Drug uptake in Wistar rat brain Cerebellum at 5 nM incubated for 30 mins by autoradiography; format: ADME, tissue-based; conditions: 0.5 h, 0.005 µM
[8] = Drug uptake in Wistar rat brain incubated for 30 mins in presence of SAR127303 by autoradiography; format: ADME, tissue-based; conditions: 0.5 h
[9] = Drug uptake in Wistar rat brain Cortex at 2 nM incubated for 30 mins by autoradiography; format: ADME, tissue-based; conditions: 0.5 h, 0.002 µM
[10] = Drug uptake in Wistar rat brain Thalamus at 2 nM incubated for 30 mins by autoradiography; format: ADME, tissue-based; conditions: 0.5 h, 0.002 µM
[11] = Drug uptake in Wistar rat brain Thalamus at 5 nM incubated for 30 mins by autoradiography; format: ADME, tissue-based; conditions: 0.5 h, 0.005 µM
[12] = Drug uptake in Wistar rat brain striatum at 2 nM incubated for 30 mins by autoradiography; format: ADME, tissue-based; conditions: 0.5 h, 0.002 µM
[13] = Drug uptake in Wistar rat brain Hippocampus at 5 nM incubated for 30 mins by autoradiography; format: ADME, tissue-based; conditions: 0.5 h, 0.005 µM
[14] = Drug uptake in wild type mouse brain at 0.74 at 4.94 nmol/kg, iv and measured after 1 min post infection by PET imaging anlaysis; format: ADME, organism-based; conditions: in vivo
[15] = Drug uptake in Wistar rat brain Cerebellum at 2 nM incubated for 30 mins by autoradiography; format: ADME, tissue-based; conditions: 0.5 h, 0.002 µM
[16] = Distribution coefficient between 1-octanol and phosphate buffer, logD of the compound after 15 mins by shake flask assay; format: physicochemical; conditions: 1-octanol/phosphate buffer
[17] = Drug uptake in C57BL/6 mouse brain at 4.41 to 6.8 nmol/kg, iv and measured after 1 min post infection by PET imaging anlaysis; format: ADME, organism-based; conditions: in vivo, dose 4.41-6.8 nmol/kg
[18] = Drug metabolism in C57BL/6 mouse brain assessed as intact parent compound 46.50 to 49.39 MBq, iv and measured after 60 mins post injection by radio-UPLC analysis; format: ADME, organism-based; conditions: dose 46.5-49.39 MBq, read-out: Stability
[19] = Protein binding in mouse plasma assessed as free plasma concentration incubated for 10 mins by ultracentrifugation; format: ADME, cell-free
[20] = Drug metabolism in C57BL/6 mouse brain assessed as intact parent compound at 46.50 to 49.39 MBq, iv and measured after 40 mins post injection by radio-UPLC analysis; format: ADME, organism-based; conditions: dose 46.5-49.39 MBq, read-out: Stability
[21] = Stability in mouse serum at 37 degC for 2 hrs by UPLC analysis; format: ADME, cell-free; conditions: read-out: Stability
[22] = Stability in human serum at 37 degC for 2 hrs by UPLC analysis; format: ADME, cell-free; conditions: read-out: Stability
[23] = Clearance in human liver microsomes by LC/MS analysis; format: ADME, Microsome; conditions: read-out: CLH
[24] = Protein binding in human plasma assessed as free plasma concentration incubated for 10 mins by ultracentrifugation; format: ADME, cell-free
[25] = Drug metabolism in C57BL/6 mouse brain assessed as intact parent compound at 46.50 to 49.39 MBq, iv and measured after 20 mins post injection by radio-UPLC analysis; format: ADME, organism-based; conditions: dose 46.5-49.39 MBq, read-out: Stability
[26] = Clearance in mouse liver microsomes by LC/MS analysis; format: ADME, Microsome; conditions: read-out: CLH
[27] = Inhibition of Cynomolgus monkey MAGL using 2-AG as substrate incubated for 30 mins; set-up: species or system Macaca fascicularis
[28] = Metabolic stability in C57BL/6 mouse brain assessed as remaining parent compound 46.50 to 49.39 MBq, iv and measured after 90 mins post injection by radio-UPLC analysis; format: ADME, organism-based; conditions: dose 46.5-49.39 MBq, read-out: Stability

## O=C1CC(N2CCN(c3ncccn3)CC2)CN1c1ccc(N2CC[C@H](F)C2)cc1 (stereo partly specified)
Monoglyceride lipase
  IC50: 80 nM

## O=C(c1ccco1)N1CCN(C2CC(=O)N(c3ccc(-c4ccccc4F)cc3)C2)CC1 (stereo unspecified)
Monoglyceride lipase
  IC50: 37 nM

## COc1ccccc1-c1ccc(N2CC(N3CCN(c4ncccn4)CC3)CC2=O)cc1 (stereo unspecified)
Monoglyceride lipase
  IC50: 72 nM

## O=C(c1ccco1)N1CCN(C2CC(=O)N(c3cccc(-c4cccc(F)c4)c3)C2)CC1 (stereo unspecified)
Monoglyceride lipase
  IC50: 41 nM

## O=C(c1ccco1)N1CCN([C@H]2CC(=O)N(c3ccc(-c4ccc(F)cc4)cc3)C2)CC1
Monoglyceride lipase
  IC50: 138 nM

## COc1ccccc1-c1ccc(N2CC(N3CCN(C(=O)c4ccco4)CC3)CC2=O)cc1 (stereo unspecified)
Monoglyceride lipase
  IC50: 30 nM

## O=C1CC(N2CCN(c3ncccn3)CC2)CN1c1cccc(N2CC[C@@H](F)C2)c1 (stereo partly specified)
Monoglyceride lipase
  IC50: 10700 nM

## COc1cccc(-c2ccc(N3CC(N4CCN(C(=O)c5ccco5)CC4)CC3=O)cc2)c1 (stereo unspecified)
[1]
  Drug uptake: Not Active
[2]
  Drug uptake: Active
[3]
  Drug uptake: 41%
[4]
  Drug uptake: 41%
[5]
  Drug uptake: Active
[6]
  Drug uptake: Active
[7]
  Drug uptake: Active
[8]
  Drug uptake: 41%
Monoglyceride lipase
  IC50: 9 nM
[9]
  Drug uptake: Active
[10]
  Drug uptake: Active
[11]
  Drug uptake: Active
[12]
  Drug uptake: Active
[13]
  Drug uptake: Active
[14]
  SUV: 1.2
[15]
  Drug uptake: Active
[16]
  logD at 0.25 h: 2.24

## O=C(c1ccco1)N1CCN(C2CC(=O)N(c3ccc(-c4ccc(F)nc4)cc3)C2)CC1 (stereo unspecified)
Monoglyceride lipase
  IC50: 127 nM

## COc1ccccc1-c1cccc(N2CC(N3CCN(c4ncccn4)CC3)CC2=O)c1 (stereo unspecified)
Monoglyceride lipase
  IC50: 85 nM

## O=C(c1ccco1)N1CCN(C2CC(=O)N(c3cccc(N4CC[C@@H](F)C4)c3)C2)CC1 (stereo partly specified)
Monoglyceride lipase
  IC50: 2920 nM

## O=C1CC(N2CCN(c3ncccn3)CC2)CN1c1cccc(-c2ccc(F)nc2)c1 (stereo unspecified)
Monoglyceride lipase
  IC50: 2100 nM

## COc1cccc(-c2cccc(N3CC(N4CCN(C(=O)c5ccco5)CC4)CC3=O)c2)c1 (stereo unspecified)
[1]
  Drug uptake: Not Active
[2]
  Drug uptake: Active
[3]
  Drug uptake: 54%
[4]
  Drug uptake: 41%
[5]
  Drug uptake: Active
[6]
  Drug uptake: Active
[7]
  Drug uptake: Active
[8]
  Drug uptake: 41%
Monoglyceride lipase
  IC50: 15 nM
[9]
  Drug uptake: Active
[10]
  Drug uptake: Active
[11]
  Drug uptake: Active
[17]
  SUV: 0.6
[12]
  Drug uptake: Active
[13]
  Drug uptake: Active
[15]
  Drug uptake: Active
[16]
  logD at 0.25 h: 2.31

## COc1cccc(-c2ccc(N3CC(N4CCN(c5ncccn5)CC4)CC3=O)cc2)c1 (stereo unspecified)
Monoglyceride lipase
  IC50: 20 nM

## O=C1CC(N2CCN(c3ncccn3)CC2)CN1c1cccc(N2CC[C@H](F)C2)c1 (stereo partly specified)
Monoglyceride lipase
  IC50: 9300 nM

## COc1cccc(-c2cccc(N3CC(N4CCN(c5ncccn5)CC4)CC3=O)c2)c1 (stereo unspecified)
Monoglyceride lipase
  IC50: 39 nM

## O=C1CC(N2CCN(c3ncccn3)CC2)CN1c1cccc(-c2cccnc2F)c1 (stereo unspecified)
Monoglyceride lipase
  IC50: 305 nM

## O=C(c1ccco1)N1CCN([C@@H]2CC(=O)N(c3ccc(-c4ccc(F)cc4)cc3)C2)CC1
[18]
  remaining at 1 h: 68%
[19]
  fraction unbound at 10 min: 0.24
[20]
  remaining at 40 min: 70%
[21]
  remaining at 2 h: > 95%
[22]
  remaining at 2 h: > 95%
[23]
  microsomal CLint: 21 µL/min/mg
[24]
  fraction unbound at 10 min: 0.12
Monoglyceride lipase
  IC50: 8 nM
[25]
  remaining at 20 min: 95%
[26]
  microsomal CLint: 124 µL/min/mg
[17]
  SUV: 1.63
[27]
  IC50: 14 nM
[16]
  logD at 0.25 h: 2.37

## O=C(c1ccco1)N1CCN(C2CC(=O)N(c3ccc(N4CC[C@@H](F)C4)cc3)C2)CC1 (stereo partly specified)
Monoglyceride lipase
  IC50: 1080 nM

## Cc1ccnc(F)c1-c1cccc(N2C[C@H](N3CCN(C(=O)c4nccs4)CC3)CC2=O)c1
[28]
  remaining at 1.5 h: 73%
Monoglyceride lipase
  IC50: 13 nM

## O=C(c1ccco1)N1CCN(C2CC(=O)N(c3ccc(-c4ccc(F)cc4)cc3)C2)CC1 (stereo unspecified)
Monoglyceride lipase
  IC50: 13 nM
